Tested on: MM2-CK1ε
Test: phosphopeptide mapping of MM2-CK1ε in N2a cells
Assay type: cell-based
Conditions: DHPG 2 min
Description: Twenty-four hours after transfecting N2a cells with CK1ε expression plasmids, cells were incubated in 200 μCi/ml (NEN) ^32P-inorganic phosphate and phosphate-free serum-free DMEM for 2 h. […] Cells were treated with DHPG for various periods of time as indicated, harvested by lysis in RIPA buffer and clarified by centrifugation at 14,000×g for 10 min. Soluble extracts containing HA- or Myc-tagged proteins were immunoprecipitated with 12CA5 or 9E10 monoclonal antibody and protein A-agarose. The immunoprecipitates were eluted from the protein A-agarose and separated by SDS-PAGE on 10% gel. Proteins were stained briefly with Coomassie Brilliant Blue, the gels were dried, and the labeled proteins were visualized by autoradiography.
Radiolabeled protein bands were excised, rehydrated, de-stained and dried in a speedvac. The gel slices were minced and rehydrated in 75 μg/ml TPCK/trypsin in 50 mM NH4CO3H (1 ml final volume) for 24 h at 37° C. The supernatant was removed from the gel slices and then lyophilized to dryness. Recovery of tryptic phosphopeptides was determined by Cerenkov counting. The two-dimensional peptide mapping method was used to separate phosphopeptides (23). Lyophilized tryptic peptides were suspended in 10 μl of electrophoresis buffer (10% acetic acid and 1% pyridine, pH 3.5) and spotted onto thin-layer cellulose plates (20×20 cm, Analtech). […]

SMILES: N[C@H](C(=O)O)c1cc(O)cc(O)c1 [DHPG, (S)-3,5-Dihydroxyphenylglycine]
- effect on phosphorylation of MM2-CK1ε: no effect

Reference: patent publication US7129073B2, “Regulation of neuronal function through metabotropic glutamate receptor signaling pathways” (The Rockefeller University, priority 2001, dated 2006)
